Test: in vivo
Conditions: guinea pig, po

## COc1cc(NC(C)CCCN)c2nccc(C)c2c1Oc1cccc(C(F)(F)F)c1.O=C(O)CCC(=O)O (stereo not shown) [Compound 1, 8-(4-Amino-1-methylbutylamino)-6-methoxy-4-methyl-5-(3-trifluoromethylphenoxy)quinoline Succinate]
  LD50: 174 mg/kg

From patent US4431807A, “4-Methyl-5-(unsubstituted and substituted phenoxy)-6-methoxy-8-(aminoalkylamino)quinolines” (priority 1981, dated 1984)
